This is an account of results in patent US4421912A, “Cephalosporin derivatives” (Takeda Chemical Industries, Ltd., priority 1973, dated 1983).

Molecules are shown by their SMILES. ≈ marks a conversion by molar mass, not a printed value. Read-outs that look alike come from different tables or passages of the source.

Common to all, as to assay: Antibacterial spectra, agar dilution method
Assay type in all cases: cell-based

Test [1] relates to E. coli 0-111.
From the text: (§1) (mcg/ml., agar dilution method)
as §1
(§2) (mcg/ml, agar dilution method)
(§3) (mcg./ml., agar dilution method)

Test [2] has as its system E. coli NIHJ JC-2. The conditions noted are these: Escherichia coli.
From the text: as §1, §1, §2, §3

Test [3] concerns S. aureus 1840.
From the text: as §1, §1, §2, §3

Test [4] relates to S. aureus 209P. The conditions noted are these: Staphylococcus aureus, 209P.
From the text: as §1, §1, §2, §3

In test [5] the test system is K. pneumoniae DT. The conditions noted are these: Klebsiella pneumoniae.
The test system of test [6] is P. morganii Eb53. The conditions noted are these: Morganella morganii.
From the text: as §2, §3

For test [7], the system named is E. coli T-7. The conditions noted are these: Escherichia coli. The text has this:
(§4) |(mcg./ml., agar dilution method)

Test [8] has as its system P. vulgaris IFO 3988. The conditions noted are these: Proteus vulgaris, IFO3988; P. vulgaris IFO 3988; agar dilution method; Table 11; read-out: Antibacterial spectra.
From the text: as §4

Where [9] appears, read: Escherichia coli, 0111, E. coli 0-111, Table 11.
Setting [10] is: NIHJJC2, E. coli NIHJ JC-2, Table 11, read-out: Antibacterial spectra.
The mark [11] stands for this setting: Staphylococcus aureus, 1840, read-out: Antibacterial spectra, S. aureus 1840, Table 11.
The mark [12] stands for this setting: read-out: Antibacterial spectra, S. aureus 209P, Table 11.
Setting [13] is: P. morganii Eb53, agar dilution method, Table 11, read-out: Antibacterial spectra.
Where [14] appears, read: T7, E. coli T-7, agar dilution method, Table 11, read-out: Antibacterial spectra.
The mark [15] stands for this setting: NIHJJC2, read-out: Antibacterial spectra, E. coli NIHJ JC-2, Table 11.
Setting [16] is: EB53, read-out: Antibacterial spectra.

On to `Cc1nnc(SCC2=C(C(=O)O)N3C(=O)C(NC(=O)Cc4csc(N)n4)C3SC2)o1` (centres unmarked) [Compound 38], for which the MIC came to 0.39 µg/mL (≈ 0.832 µM) in test [1] (setting [9]); 1.56 µg/mL (≈ 3.33 µM) in test [2] (setting [10]); 0.78 µg/mL (≈ 1.66 µM) in test [3] (setting [11]); 0.39 µg/mL (≈ 0.832 µM) in test [4] (setting [12]); 0.39 µg/mL (≈ 0.832 µM) in test [5] (Table 11); 25 µg/mL (≈ 53.4 µM) in test [6] (setting [13]).

As for `Cn1nnnc1SCC1=C(C(=O)O)N2C(=O)C(NC(=O)Cc3csc(=S)[nH]3)C2SC1` (centres unmarked) [Compound 64], the MIC is 1.56 µg/mL (≈ 3.21 µM) in test [1] (setting [9]), 1.56 µg/mL (≈ 3.21 µM) in test [3] (setting [11]), less than 0.78 µg/mL in test [4] (setting [12]) and less than 0.78 µg/mL in test [5] (Table 11).

With `O=C(Cc1csc(=O)[nH]1)NC1C(=O)N2C(C(=O)O)=C(CSc3nncs3)CS[C@H]12` (some centres unmarked) [Example 4, 7-[2-(2-oxo-4-thiazolin-4-yl)acetamido]-3-(1,3,4-thiadiazol-2-yl)thiomethyl-3-cephem-4-carboxylic acid], the MIC in test [1] (Escherichia coli, 0111, E. coli 0-111, tables in the Examples) is 1.56 µg/mL (≈ 3.31 µM); in test [3] (Staphylococcus aureus, 1840, read-out: Antibacterial spectra, S. aureus 1840, tables in the Examples) it was less than 0.78 µg/mL; in test [4] (read-out: Antibacterial spectra, S. aureus 209P, tables in the Examples), less than 0.78 µg/mL; in test [5] (tables in the Examples), 1.56 µg/mL (≈ 3.31 µM).

As to `CC(=O)CSc1nnc(SCC2=C(C(=O)O)N3C(=O)C(NC(=O)Cc4csc(N)n4)C3SC2)s1` (centres unmarked) [Compound 23], the MIC was 0.39 µg/mL (≈ 0.698 µM) in test [1] (setting [9]); 1.56 µg/mL (≈ 2.79 µM) in test [2] (setting [10]); 0.78 µg/mL (≈ 1.4 µM) in test [3] (setting [11]); not above 0.2 µg/mL in test [4] (setting [12]); 25 µg/mL (≈ 44.7 µM) in test [7] (setting [14]); 0.39 µg/mL (≈ 0.698 µM) in test [8]. Also, the MIC in test [5] (Table 11) is not above 0.2 µg/mL; in test [6] (setting [13]), 3.13 µg/mL (≈ 5.6 µM).

As to `Nc1nc(CC(=O)NC2C(=O)N3C(C(=O)O)=C(CSc4nnc(N)s4)CSC23)cs1` (centres unmarked) [Compound 4], the MIC in test [1] (setting [9]) worked out at 0.1 µg/mL (≈ 0.206 µM); in test [2] (setting [15]), 0.78 µg/mL (≈ 1.61 µM); in test [3] (setting [11]), 0.78 µg/mL (≈ 1.61 µM); in test [4] (setting [12]), 0.2 µg/mL (≈ 0.412 µM); in test [7] (setting [14]), 100 µg/mL (≈ 206 µM); in test [8], 0.2 µg/mL (≈ 0.412 µM). Also, the values for the MIC in test [5] (Table 11) and in test [6] (setting [13]) were 0.2 µg/mL (≈ 0.412 µM) and 50 µg/mL (≈ 103 µM), respectively.

Regarding `Nc1nc(CC(=O)NC2C(=O)N3C(C(=O)O)=C(CSc4nc(CC(=O)O)cs4)CSC23)cs1` (centres unmarked) [Compound 30], the MIC in test [1] (setting [9]) was 0.39 µg/mL (≈ 0.739 µM); in test [2] (setting [10]), 1.56 µg/mL (≈ 2.96 µM); in test [3] (setting [11]) it was 1.56 µg/mL (≈ 2.96 µM); in test [4] (setting [12]), 0.39 µg/mL (≈ 0.739 µM); in test [7] (setting [14]), 100 µg/mL (≈ 190 µM); in test [8], 0.2 µg/mL (≈ 0.379 µM). The results for the MIC in test [5] (Table 11) and in test [6] (setting [13]) were less than 0.05 µg/mL and 50 µg/mL (≈ 94.8 µM), respectively.

For the compound `NC(=O)Cn1nnnc1SCC1=C(C(=O)O)N2C(=O)C(NC(=O)Cc3csc(N)n3)C2SC1` (centres unmarked) [Compound 29], the MIC in test [1] (setting [9]) was not above 0.2 µg/mL; in test [2] (setting [15]), 0.39 µg/mL (≈ 0.762 µM); in test [3] (setting [11]), 1.56 µg/mL (≈ 3.05 µM); in test [4] (setting [12]), 0.78 µg/mL (≈ 1.52 µM); in test [7] (setting [14]), 3.13 µg/mL (≈ 6.12 µM); in test [8] it was not above 0.2 µg/mL. Besides, the MIC in test [5] (Table 11) and in test [6] (setting [16]) was not above 0.2 µg/mL throughout.

Consider `Nc1nc(CC(=O)NC2C(=O)N3C(C(=O)[O-])=C(CSc4nnc(SCCO)s4)CS[C@H]23)cs1.[Na+]` (some centres unmarked) [Compound 6, sodium 7-[2-(2-aminothiazol-4-yl)acetamido]-3-[2-(2-hydroxyethylthio)1,3,4-thiadiazol-5-yl)thiomethyl-3-cephem-4-carboxylate], for which the MIC in test [1] (setting [9]) is not above 0.2 µg/mL; in test [2] (setting [15]) it was 0.78 µg/mL; in test [3] (setting [11]) it was 0.78 µg/mL; in test [4] (setting [12]), not above 0.2 µg/mL; in test [7] (T7, read-out: Antibacterial spectra), 12.5 µg/mL; in test [8], 0.39 µg/mL. Further, the MIC in test [5] (Table 11) is not above 0.2 µg/mL; in test [6] (setting [16]), 6.25 µg/mL.

Take `Nc1nc(CC(=O)NC2C(=O)N3C(C(=O)O)=C(CSc4nnc(C(F)(F)F)s4)CSC23)cs1` (centres unmarked) [Compound 45]: the MIC was 0.78 µg/mL (≈ 1.45 µM) in test [1] (setting [9]); 3.13 µg/mL (≈ 5.81 µM) in test [2] (setting [10]); 0.78 µg/mL (≈ 1.45 µM) in test [3] (setting [11]); not above 0.2 µg/mL in test [4] (setting [12]); 25 µg/mL (≈ 46.4 µM) in test [7] (setting [14]); 0.78 µg/mL (≈ 1.45 µM) in test [8]. The MIC in test [5] (Table 11) was 0.78 µg/mL (≈ 1.45 µM).

Turning to `CSCc1nnc(SCC2=C(C(=O)O)N3C(=O)C(NC(=O)Cc4csc(N)n4)C3SC2)s1` (centres unmarked) [Compound 24], the MIC in test [1] (setting [9]) was 0.39 µg/mL (≈ 0.735 µM); in test [2] (setting [10]), 1.56 µg/mL (≈ 2.94 µM); in test [3] (setting [11]), 0.78 µg/mL (≈ 1.47 µM); in test [4] (setting [12]), not above 0.2 µg/mL; in test [7] (setting [14]) it was 25 µg/mL (≈ 47.1 µM); in test [8] it was 0.39 µg/mL (≈ 0.735 µM). Further, the figures for the MIC in test [5] (Table 11) and in test [6] (setting [13]) were not above 0.2 µg/mL and 25 µg/mL (≈ 47.1 µM), respectively.

For the compound `Nc1nc(CC(=O)NC2C(=O)N3C(C(=O)O)=C(CSc4nnc(NCCS(=O)(=O)O)s4)CSC23)cs1` (centres unmarked) [Compound 22], the MIC was not above 0.2 µg/mL in test [1] (setting [9]); 0.78 µg/mL (≈ 1.31 µM) in test [2] (setting [15]); 3.13 µg/mL (≈ 5.27 µM) in test [3] (Staphylococcus aureus, S. aureus 1840, Table 11, read-out: Antibacterial spectra); 0.78 µg/mL (≈ 1.31 µM) in test [4] (setting [12]); 25 µg/mL (≈ 42.1 µM) in test [7] (setting [14]); not above 0.2 µg/mL in test [8]. In addition, the MIC is not above 0.2 µg/mL in test [5] (Table 11) and 0.78 µg/mL (≈ 1.31 µM) in test [6] (setting [16]).
